Measured values reported in patent US6696495B2, “Treatment of disorders secondary to organic impairments” (Snowden Pharmaceuticals, LLC, priority 1998, dated 2004).

Each molecule was assayed on Asocial Behavior, Violence, and Hyposexuality (assay: Case history 10, Sibutramine Patient No. 54). Settings: before sibutramine.
Format: in vivo, human

Row | Molecule | response to other medications
1 | NC(=O)N1c2ccccc2C=Cc2ccccc21 [carbamazepine] | without any changes in their speech or mode of communication
2 | O=C(CCCN1CCC(O)(c2ccc(Cl)cc2)CC1)c1ccc(F)cc1 [haloperidol] | without any changes in their speech or mode of communication
3 | COC(=O)C(c1ccccc1)C1CCCCN1 (stereo not shown) [methylphenidate] | without any changes in their speech or mode of communication

These molecules were tested on Sexual Function, ADD, and Rage Outbursts (assay: Case history 3, Sibutramine Patient No. 100). Settings: mood swings, cognitive, anger, sexual problems; before sibutramine.
Format: in vivo, human

Row | Molecule | response to other medications
4 | CC(NC(C)(C)C)C(=O)c1cccc(Cl)c1 (stereo not shown) [bupropion] | unsuccessful
5 | NC(=O)N1c2ccccc2C=Cc2ccccc21 [carbamazepine] | helped with their mood swings but not with their anger, sexual, or cognitive problems
6 | C[C@H](N)Cc1ccccc1 [dextroamphetamine] | unsuccessful
7 | COC(=O)C(c1ccccc1)C1CCCCN1 (stereo not shown) [methylphenidate] | unsuccessful
8 | CCCC(CCC)C(=O)O [valproic acid] | not helpful
9 | magnesium pemoline | not helpful

The molecules below were run on Severe Post-Traumatic Stress Reaction (assay: not given). Settings: before sibutramine.
Experimental: Finally, this patient was taken off of fluoxetine 20 mg when sibutramine treatment was initiated.

Row | Molecule | response of PTSD symptoms to other medications
10 | NC(=O)N1c2ccccc2C=Cc2ccccc21 [carbamazepine] | unsuccessful
11 | C[C@H](N)Cc1ccccc1 [dextroamphetamine] | unsuccessful
12 | COC(=O)C(c1ccccc1)C1CCCCN1 (stereo not shown) [methylphenidate] | unsuccessful
13 | CCCC(CCC)C(=O)O [valproic acid] | unsuccessful

Same assay, conditions: human, in vivo

Row | Molecule | depression
14 | CNCCC(Oc1ccc(C(F)(F)F)cc1)c1ccccc1 (stereo not shown) [fluoxetine] | the depression and PTSD were relieved

What follows are molecules tested on Huntington's Disease (assay: Case history 12, Sibutramine Patient No. 113). Settings: after worsening of symptoms.
Format: in vivo, human

Row | Molecule | response to previous medications
15 | NC(=O)N1c2ccccc2C=Cc2ccccc21 [carbamazepine] | no longer responded
16 | CNCCC(Oc1ccc(C(F)(F)F)cc1)c1ccccc1 (stereo not shown) [fluoxetine] | no longer responded
17 | NCC1(CC(=O)O)CCCCC1 [gabapentin] | no longer responded

What follows are molecules tested on Sexual Function and ADD (assay: Case history 4, Sibutramine Patient No. 109). Settings: before sibutramine.
Format: in vivo, human

Row | Molecule | response to other medications
18 | CCCC(CCC)C(=O)O [valproic acid] | helped their anger attacks but interfered with their concentration considerably and did not help their sexual problems
19 | magnesium pemoline | unsuccessful

What follows are molecules tested on Tourette's Disease Tics, Violence, and ADHD (assay: Case history 8, Sibutramine Patient No. 47). Settings: over six years before sibutramine.
Format: in vivo, human

Row | Molecule | response to other medications
20 | NC(=O)N1c2ccccc2C=Cc2ccccc21 [carbamazepine] | without any good results
21 | NCC1(CC(=O)O)CCCCC1 [gabapentin] | without any good results
22 | COC(=O)C(c1ccccc1)C1CCCCN1 (stereo not shown) [methylphenidate] | without any good results
23 | CCCC(CCC)C(=O)O [valproic acid] | without any good results
24 | magnesium pemoline | without any good results

Each molecule was assayed on Tourette's Tics, Asocial Behavior, and Relief of Hyposexuality (assay: not given). Settings: before sibutramine.

Row | Molecule | response to other medications
25 | NC(=O)N1c2ccccc2C=Cc2ccccc21 [carbamazepine] | without success
26 | C[C@H](N)Cc1ccccc1 [dextroamphetamine] | without success
27 | NCC1(CC(=O)O)CCCCC1 [gabapentin] | without success
28 | O=C(CCCN1CCC(O)(c2ccc(Cl)cc2)CC1)c1ccc(F)cc1 [haloperidol] | without success
29 | COC(=O)C(c1ccccc1)C1CCCCN1 (stereo not shown) [methylphenidate] | without success
30 | CCCC(CCC)C(=O)O [valproic acid] | without success
31 | magnesium pemoline | without success

What follows are molecules tested on Sexual Gender Choice Change (assay: Case history 7, Sibutramine Patient No. 99). Settings: depression; impulsive behaviors, mood swings, epileptic symptoms.
Format: in vivo, human

Row | Molecule | response to other medications
32 | NC(=O)N1c2ccccc2C=Cc2ccccc21 [carbamazepine] | impulsive behaviors, mood swings, and epileptic symptoms were relieved
33 | CNCCC(Oc1ccc(C(F)(F)F)cc1)c1ccccc1 (stereo not shown) [fluoxetine] | refractory
34 | NCC1(CC(=O)O)CCCCC1 [gabapentin] | refractory
35 | COC(=O)C(c1ccccc1)C1CCCCN1 (stereo not shown) [methylphenidate] | refractory

Each molecule was assayed on Torticollis, Lingual Dystonia and Dyskinesia (assay: Case history 23). Settings: in vivo.
Format: in vivo, human

Row | Molecule | response to other treatment
36 | botulinum toxin | only temporarily relieved their symptoms

What follows are molecules tested on Severe Atypical Psychosis (assay: Case history 1, Sibutramine Patient No. 97). Settings: treatments before sibutramine.
Format: in vivo, human

Row | Molecule | response of psychosis symptoms to other medications
37 | NC(=O)N1c2ccccc2C=Cc2ccccc21 [carbamazepine] | did not control their symptoms
38 | CNCCC(Oc1ccc(C(F)(F)F)cc1)c1ccccc1 (stereo not shown) [fluoxetine] | without success
39 | O=C(CCCN1CCC(O)(c2ccc(Cl)cc2)CC1)c1ccc(F)cc1 [haloperidol] | without success

The molecules below were run on frontal lobe executive function, ADHD, and hyposexuality (assay: not given). Settings: human, in vivo.

Row | Molecule | response to other medications
40 | CNCCC(Oc1ccc(C(F)(F)F)cc1)c1ccccc1 (stereo not shown) [fluoxetine] | unsuccessful
41 | COC(=O)C(c1ccccc1)C1CCCCN1 (stereo not shown) [methylphenidate] | Initially their attention problems responded

The molecules below were run on ADHD Refractory to Other Treatments (assay: not given). Settings: four years before sibutramine.
Format: in vivo, human
Experimental: 16. ADHD Refractory to Other Treatments (Problem No. 6) Sibutramine Patient No. 16
The amphetamines made their nervous, jittery, and unable to sleep. […] They were started on sibutramine 10 mg every morning by mouth. […] After the first month, their dose was changed to 5 mg three times daily due to a five hour duration of effects.

Row | Molecule | response of ADHD to other medications
42 | C[C@H](N)Cc1ccccc1 [dextroamphetamine] | without success
43 | COC(=O)C(c1ccccc1)C1CCCCN1 (stereo not shown) [methylphenidate] | without success
44 | magnesium pemoline | without success

Same assay, conditions: human, in vivo

Row | Molecule | side effects of other medications
45 | COC(=O)C(c1ccccc1)C1CCCCN1 (stereo not shown) [methylphenidate] | made their sleepy
46 | magnesium pemoline | made their sleepy

What follows are molecules tested on Dementia, Alzheimer's-Type (assay: Case history 24). Settings: before sibutramine.
Format: in vivo, human
Experimental: 24. The Symptoms Due to Dementia, Alzheimer's-Type
person one was diagnosed with Dementia. The symptoms they suffered from included memory loss and severe confusion. They tried a variety of treatments to relieve their symptoms including choldine esterase inhibitors, antidepressants, Ritilin, and aterol. […] They were then tested off of sibutramine. […] They began to suffer from a lowered I.Q. and their memory deteriorated.

Row | Molecule | response to other treatments
47 | COC(=O)C(c1ccccc1)C1CCCCN1 (stereo not shown) [Ritilin] | None of these treatments had any effect on their symptoms

Each molecule was assayed on Non-Tourette's tics, obsessive-compulsive rituals, and attention deficit hyperactive disorder (ADHD) (assay: not given). Settings: before sibutramine.

Row | Molecule | response to other medications
48 | NC(=O)N1c2ccccc2C=Cc2ccccc21 [carbamazepine] | unsuccessful
49 | COC(=O)C(c1ccccc1)C1CCCCN1 (stereo not shown) [methylphenidate] | initially treated successfully

The molecules below were run on Sexual Obsessive-Compulsive Behavior, ADD and Executive Function (assay: Case history 6, Sibutramine Patient No. 77). Settings: before sibutramine.
Format: in vivo, human

Row | Molecule | response to other medications
50 | CC(NC(C)(C)C)C(=O)c1cccc(Cl)c1 (stereo not shown) [bupropion] | unsuccessful
51 | C[C@H](N)Cc1ccccc1 [dextroamphetamine] | unsuccessful
52 | O=C(CCCN1CCC(O)(c2ccc(Cl)cc2)CC1)c1ccc(F)cc1 [haloperidol] | unsuccessful
53 | COC(=O)C(c1ccccc1)C1CCCCN1 (stereo not shown) [methylphenidate] | unsuccessful
54 | CCCC(CCC)C(=O)O [valproic acid] | unsuccessful
55 | magnesium pemoline | unsuccessful
